Values quoted from earlier work as cited in patent publication US10058543B2, “Treatment of familial exudative vitreoretinopathy through S1PR2 inhibition” (DALHOUSIE UNIVERSITY, priority 2014, dated 2018).
Entries after “also recorded” stand apart in the source; their conditions may differ.

Key:
VEGF = conditions: ocular injection, FEVR patient, one study
S1PR2 = S1PR2 (Homo sapiens, UniProt O95136)
Sequence of S1PR2 (O95136 whole entry): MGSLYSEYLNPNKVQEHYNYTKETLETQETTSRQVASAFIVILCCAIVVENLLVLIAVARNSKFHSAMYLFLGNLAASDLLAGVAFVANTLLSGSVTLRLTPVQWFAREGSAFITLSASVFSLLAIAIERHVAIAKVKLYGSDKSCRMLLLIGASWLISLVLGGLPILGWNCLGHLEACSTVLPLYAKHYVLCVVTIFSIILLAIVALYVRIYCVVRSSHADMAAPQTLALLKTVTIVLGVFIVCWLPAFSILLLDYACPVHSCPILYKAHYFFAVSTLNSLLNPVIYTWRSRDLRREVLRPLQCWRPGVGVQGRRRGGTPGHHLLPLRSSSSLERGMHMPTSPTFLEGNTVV

Sequence of VEGF (P15692 207-311 limits assumed): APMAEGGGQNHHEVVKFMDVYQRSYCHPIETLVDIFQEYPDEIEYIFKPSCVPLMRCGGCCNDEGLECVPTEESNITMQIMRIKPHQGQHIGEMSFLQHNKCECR

| Molecule | retinal hemorrhage and neovascularization (VEGF) | specificity for S1PR2 versus other S1PRs (S1PR2) | affinity (S1PR2; S1PR2, stated in words) | specificity for S1PR2 (S1PR2; stated in words) |
| --- | --- | --- | --- | --- |
| bevacizumab: monoclonal antibody that inhibits VEGF function originally developed to treat cancers | improvement of retinal hemorrhage and neovascularization |  |  |  |
| Cc1nn(C)c2nc(NNC(=O)Nc3cc(Cl)nc(Cl)c3)cc(C(C)C)c12 [JTE-103, 1-(2,6-dichloro-4-pyridyl)-3-[(4-isopropyl-1,3-dimethyl-pyrazolo[3,4-n]pyridin-6-yl)amino]urea] |  | 10 fold | uM affinity; also recorded: low affinity | some specificity for S1PR2 |
